Source: ChEMBL document CHEMBL1201862, “PubChem BioAssay data set” (2004)
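Compound exposure: 48 hours, 5 concentrations, 96-well plates. The concentration for 50% growth inhibition is given as GI50.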 Calls of active or inactive are those of the source. Cut-off read from the data, not from the text of the source: active = GI50 up to about 1.1 µM and inactive = higher.

Legend:
Assay in all cases: NCI anticancer screen, dose series, 48 h
MCF7 = tested on: MCF7
OVCAR-5 = tested on: OVCAR-5
A549 = tested on: A549
EKVX = tested on: EKVX
MDA-N = tested on: MDA-N
NCI/ADR-RES = tested on: NCI/ADR-RES
MDA-MB-231 = tested on: MDA-MB-231
PC-3 = tested on: PC-3
HCC 2998 = tested on: HCC 2998
ACHN = tested on: ACHN
UO-31 = tested on: UO-31
K562 = tested on: K562
SW-620 = tested on: SW-620
RXF 393 = tested on: RXF 393
NCI-H460 = tested on: NCI-H460
HL-60 = tested on: HL-60
RPMI-8226 = tested on: RPMI-8226
UACC-62 = tested on: UACC-62
M14 = tested on: M14

Measured: GI50

COc1ccc(/C=C/C(=O)c2cc(CN(C)C)c(O)c(CN(C)C)c2)cc1
inactive: MCF7 36.6 µM | OVCAR-5 > 100 µM | A549 27.6 µM | EKVX 49.8 µM | MDA-N 21.2 µM | NCI/ADR-RES 33.1 µM | MDA-MB-231 23.2 µM | PC-3 23.9 µM | HCC 2998 > 10 µM | ACHN 27.9 µM | UO-31 25.2 µM | K562 26.7 µM | SW-620 36.9 µM | RXF 393 31.7 µM | NCI-H460 18.7 µM | HL-60 22.9 µM | RPMI-8226 21.8 µM

COc1ccc(-n2c(C)nc3ccc(NC4OC(COC(C)=O)C(OC(C)=O)C(OC(C)=O)C4OC(C)=O)cc3c2=O)cc1 (stereo not drawn)
inactive: MCF7 45.9 µM | OVCAR-5 > 100 µM | EKVX > 100 µM | MDA-N 83.4 µM | UACC-62 67 µM | NCI/ADR-RES > 100 µM | MDA-MB-231 > 100 µM | PC-3 > 100 µM | HCC 2998 > 100 µM | ACHN > 100 µM | UO-31 > 100 µM | K562 36.7 µM | SW-620 39.1 µM | RXF 393 27.8 µM | NCI-H460 > 100 µM | HL-60 20.3 µM | RPMI-8226 27.1 µM

Cc1c(/N=N/c2ccccc2)c(C)n(C2OC(CO)C(O)C(O)C2O)c(=S)c1C#N (stereo not drawn)
inactive: MCF7 22.8 µM | OVCAR-5 15.1 µM | A549 35.5 µM | M14 25.6 µM | MDA-N 19.9 µM | UACC-62 1.15 µM | NCI/ADR-RES 42.4 µM | MDA-MB-231 45.3 µM | PC-3 24 µM | HCC 2998 21.8 µM | ACHN 30.5 µM | UO-31 26.2 µM | K562 24.4 µM | SW-620 29.4 µM | RXF 393 33 µM | NCI-H460 31.3 µM | HL-60 34.1 µM | RPMI-8226 40.2 µM

C=CC1(c2ccc3ccccc3c2)OCC(CC)(CC)CO1
inactive: MCF7 37.6 µM | OVCAR-5 18.8 µM | A549 33.9 µM | M14 19.9 µM | MDA-N 29.3 µM | UACC-62 24.8 µM | NCI/ADR-RES 30.1 µM | MDA-MB-231 15.8 µM | PC-3 26.9 µM | HCC 2998 20.9 µM | ACHN 20.5 µM | UO-31 32.7 µM | K562 25.1 µM | SW-620 14.9 µM | RXF 393 20 µM | NCI-H460 22.1 µM | HL-60 21.6 µM | RPMI-8226 57.7 µM

N=C(CC(=O)NOC(=O)c1ccccc1)NOC(=O)c1ccccc1
inactive: MCF7 25.8 µM | OVCAR-5 59.6 µM | A549 32.4 µM | M14 > 100 µM | EKVX 30.9 µM | MDA-N 33.6 µM | UACC-62 25.9 µM | NCI/ADR-RES 25.5 µM | MDA-MB-231 > 100 µM | PC-3 > 100 µM | ACHN 29.6 µM | UO-31 19.1 µM | K562 28.5 µM | SW-620 50.8 µM | RXF 393 10.8 µM | NCI-H460 31.1 µM | HL-60 78.3 µM | RPMI-8226 74.6 µM

O=C1Nc2c(Cl)cc(Cl)cc2/C1=N/NC(=O)c1ccccc1O
inactive: MCF7 19.1 µM | OVCAR-5 18.3 µM | A549 13.2 µM | M14 16.1 µM | EKVX 13.2 µM | MDA-N 14.4 µM | UACC-62 12.1 µM | NCI/ADR-RES 11.5 µM | MDA-MB-231 15.6 µM | PC-3 14.8 µM | HCC 2998 16.7 µM | ACHN 12.8 µM | UO-31 11.9 µM | SW-620 16.9 µM | RXF 393 12.2 µM | NCI-H460 13.5 µM | HL-60 15.1 µM

N#CCc1nc(-c2ccccc2)n[nH]1
inactive: MCF7 > 100 µM | OVCAR-5 > 100 µM | A549 > 100 µM | M14 > 100 µM | EKVX 83.6 µM | MDA-N > 100 µM | UACC-62 > 100 µM | NCI/ADR-RES > 100 µM | MDA-MB-231 > 100 µM | PC-3 > 100 µM | HCC 2998 > 100 µM | ACHN > 100 µM | UO-31 > 100 µM | K562 76.6 µM | SW-620 > 100 µM | RXF 393 > 100 µM | NCI-H460 > 100 µM | HL-60 > 100 µM

O=C(NCCCNCCCCNCCCNC(=O)C(F)(F)F)C(F)(F)F
inactive: MCF7 > 100 µM | OVCAR-5 > 100 µM | A549 > 100 µM | M14 > 100 µM | EKVX > 100 µM | MDA-N > 100 µM | UACC-62 > 100 µM | NCI/ADR-RES > 100 µM | MDA-MB-231 > 100 µM | PC-3 > 100 µM | HCC 2998 76.4 µM | ACHN > 100 µM | UO-31 > 100 µM | SW-620 54.8 µM | RXF 393 > 100 µM | NCI-H460 > 100 µM | HL-60 46.1 µM | RPMI-8226 > 100 µM

Cc1ccc2ccc(=O)oc2c1
inactive: MCF7 > 100 µM | OVCAR-5 > 100 µM | A549 > 100 µM | M14 > 100 µM | EKVX > 100 µM | MDA-N > 100 µM | UACC-62 74.5 µM | NCI/ADR-RES > 100 µM | MDA-MB-231 > 100 µM | PC-3 > 100 µM | ACHN > 100 µM | UO-31 > 100 µM | K562 > 100 µM | SW-620 > 100 µM | RXF 393 > 100 µM | NCI-H460 > 100 µM | HL-60 > 100 µM | RPMI-8226 > 100 µM

Clc1cccc(/C=c2\nc(-c3ccccc3)n3c2nc2ccccc23)c1
inactive: MCF7 > 100 µM | OVCAR-5 > 100 µM | A549 > 100 µM | M14 > 100 µM | EKVX 28.5 µM | MDA-N > 100 µM | UACC-62 21.5 µM | NCI/ADR-RES > 100 µM | MDA-MB-231 42.7 µM | PC-3 > 100 µM | UO-31 > 100 µM | K562 > 100 µM | SW-620 > 100 µM | RXF 393 31.9 µM | NCI-H460 > 100 µM | HL-60 > 100 µM | RPMI-8226 > 100 µM

COC(=O)C1=CO[C@@H](OC2OC(CO)C(O)C(O)C2O)[C@@H]2[C@H](C)[C@@H](O)[C@@H](O)[C@]12O (stereo partly drawn)
inactive: MCF7 > 100 µM | OVCAR-5 > 100 µM | A549 > 100 µM | M14 > 100 µM | EKVX > 100 µM | MDA-N > 100 µM | UACC-62 > 100 µM | NCI/ADR-RES > 100 µM | MDA-MB-231 34.8 µM | PC-3 > 100 µM | HCC 2998 > 100 µM | ACHN > 100 µM | UO-31 > 100 µM | SW-620 > 100 µM | RXF 393 > 100 µM | HL-60 > 100 µM | RPMI-8226 > 100 µM
